Experimental findings from patent US20240208942A1, “METAP-2 INHIBITORS, PHARMACEUTICAL COMPOSITIONS AND THERAPEUTIC METHODS THEREOF” (CANWELL BIOTECH LIMITED, priority 2021, published 2024) are described below.

The IC50 is the point on the concentration scale where inhibition reaches its midpoint.

In this test the target is T1, recombinant human MetAP-2 (Homo sapiens, UniProt P50579).
T1 construct: His tag (N); TEV cleavage site (N); made in house
T1 sequence (P50579 whole entry): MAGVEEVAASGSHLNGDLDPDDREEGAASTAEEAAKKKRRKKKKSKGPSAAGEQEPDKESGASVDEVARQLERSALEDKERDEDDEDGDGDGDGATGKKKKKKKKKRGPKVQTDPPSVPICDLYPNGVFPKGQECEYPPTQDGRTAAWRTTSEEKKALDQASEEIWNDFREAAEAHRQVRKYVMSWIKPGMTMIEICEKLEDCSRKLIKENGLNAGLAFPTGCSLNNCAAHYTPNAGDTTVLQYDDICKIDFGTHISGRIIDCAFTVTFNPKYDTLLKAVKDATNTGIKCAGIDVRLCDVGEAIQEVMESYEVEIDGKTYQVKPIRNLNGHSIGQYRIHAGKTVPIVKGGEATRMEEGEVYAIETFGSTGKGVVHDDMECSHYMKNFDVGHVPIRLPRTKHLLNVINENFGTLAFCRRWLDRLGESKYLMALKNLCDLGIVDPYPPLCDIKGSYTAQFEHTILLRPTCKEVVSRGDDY
Description: Enzymatic activity assay of Methionine aminopeptidase 2 (enzyme coupled assay, Met-Ala-Ser substrate). Type of test: biochemical. To be noted: recombinant human MetAP-2 (His-Tev-MetAP-2), absorbance at 450 nm, kinetic mode, read-out: MeAP2 IC50. The protocol:
The MetAP-2 activity was determined by an enzyme coupled assay using the tripeptide Met-Ala-Ser (MAS) as substrate and recombinant human MetAP-2 (His-Tev-MetAP-2, prepared in-house). The released methionine is converted by L-amino acid oxidase (AAO) to Met ox and hydrogen peroxide is released. In a second step horse radish peroxidase catalyses the oxidation of the leuko dye dianisidine to dianisidine ox with hydrogen peroxide as co-substrate. The produced dianisidine ox was detected photometrically as increase in absorbance at 450 nm. MetAP-2 activity was determined in a kinetic measurement mode. The release of one molecule methionine corresponds to the production of one molecule dianisidine ox. The MetAP-2 enzymatic activity is directly corresponding to the increase in absorbance per time.
For the compound `O=C(NCc1cc(F)cc(Cl)c1)C1(O)CCN(c2ccc(P(=O)(C3CCC3)C3CCC3)cc2)C1=O` (racemic) [Compound 5-7], the IC50 was under 1 µM.
Take `CP(C)(=O)c1ccc(N2CC[C@](O)(C(=O)NCc3cc(F)cc(F)c3)C2=O)cc1` [Compound 1, (S)-N-(3,5-difluorobenzyl)-1-(4-(dimethylphosphoryl)phenyl)-3-hydroxy-2-oxopyrrolidine-3-arboxamide]: the IC50 is under 1 µM.
Take `CP(C)(=O)c1ccc(N2CC[C@@](O)(C(=O)NCc3cc(F)cc(F)c3)C2=O)cc1` [Compound 1a, (R)-N-(3,5-difluorobenzyl)-1-(4-(dimethylphosphoryl)phenyl)-3-hydroxy-2-oxopyrrolidine-3-car boxamide]: the IC50 lay in the range of 1 to 10 µM.
On to `CP(C)(=O)c1cccc(N2CC[C@](O)(C(=O)NCc3cc(F)cc(F)c3)C2=O)c1` [Compound 2, (S)-N-(3,5-difluorobenzyl)-1-(3-(dimethylphosphoryl)phenyl)-3-hydroxy-2-oxopyrrolidine-3-carboxamide], for which the IC50 was under 1 µM.
For the compound `CP(C)(=O)c1cccc(N2CC[C@@](O)(C(=O)NCc3cc(F)cc(F)c3)C2=O)c1` [Compound 2a], the IC50 was in the range of 1 to 10 µM.
For the compound `CCP(=O)(CC)c1ccc(N2CC[C@](O)(C(=O)NCc3cc(F)cc(F)c3)C2=O)cc1` [Compound 3, (S)-1-(4-(diethylphosphoryl)phenyl)-N-(3,5-difluorobenzyl)-3-hydroxy-2-oxopyrrolidine-3-c arboxamide], the IC50 was under 1 µM.
Take `CCP(=O)(CC)c1ccc(N2CC[C@@](O)(C(=O)NCc3cc(F)cc(F)c3)C2=O)cc1` [Compound 3a]: the IC50 was 1 to 10 µM.
For `CC(C)P(=O)(c1ccc(N2CC[C@](O)(C(=O)NCc3cc(F)cc(F)c3)C2=O)cc1)C(C)C` [Compound 4, (S)-N-(3,5-difluorobenzyl)-1-(4-(diisopropylphosphoryl)phenyl)-3-hydroxy-2-oxopyrrolidine-3-carboxamide] the value was under 1 µM; for `CC(C)P(=O)(c1ccc(N2CC[C@@](O)(C(=O)NCc3cc(F)cc(F)c3)C2=O)cc1)C(C)C` [Compound 4a], under 1 µM; for `O=C(NCc1cc(F)cc(Cl)c1)[C@@]1(O)CCN(c2ccc(P(=O)(C3CCC3)C3CCC3)cc2)C1=O` [Compound 5, (S)-N-(3-chloro-5-fluorobenzyl)-1-(4-(dicyclobutylphosphoryl)phenyl)-3-hydroxy-2-oxopyrr olidine-3-carboxamide], under 1 µM.
Regarding `O=C(NCc1cc(F)cc(Cl)c1)[C@]1(O)CCN(c2ccc(P(=O)(C3CCC3)C3CCC3)cc2)C1=O` [Compound 5a], the IC50 was in the range of 1 to 10 µM.
As to `CP(C)(=O)c1ccc(N2CC[C@](O)(C(=O)NCc3cc(F)cc(F)c3)C2=O)cn1` [Compound 6, (S)-N-(3,5-difluorobenzyl)-1-(6-(dimethylphosphoryl)pyridin-3-yl)-3-hydroxy-2-oxopyrrolidine-3-carboxamide], the half-maximal inhibitory concentration (IC50) was under 1 µM.
In the case of `CP(C)(=O)c1ccc(N2CC[C@@](O)(C(=O)NCc3cc(F)cc(F)c3)C2=O)cn1` [Compound 6a], the IC50 was over 10 µM.
Turning to `CC(C)P(=O)(c1ccc(N2CC[C@](O)(C(=O)NCc3cc(F)cc(Cl)c3)C2=O)cc1)C(C)C` [Compound 7, (S)-N-(3-chloro-5-fluorobenzyl)-1-(4-(diisopropylphosphoryl)phenyl)-3-hydroxy-2-oxopyrr olidine-3-carboxamide], the IC50 is under 1 µM.
For `CC(C)P(=O)(c1ccc(N2CC[C@@](O)(C(=O)NCc3cc(F)cc(Cl)c3)C2=O)cc1)C(C)C` [Compound 7a] the value was over 10 µM; for `O=C(NCc1cc(F)cc(Cl)c1)[C@@]1(O)CCN(c2ccc(P(=O)(C3CC3)C3CC3)cc2)C1=O` [Compound 8, (S)-N-(3-chloro-5-fluorobenzyl)-1-(4-(dicyclopropylphosphoryl)phenyl)-3-hydroxy-2-oxopy rrolidine-3-carboxamide], under 1 µM.
In the case of `O=C(NCc1cc(F)cc(Cl)c1)[C@]1(O)CCN(c2ccc(P(=O)(C3CC3)C3CC3)cc2)C1=O` [Compound 8a], the IC50 is 1 to 10 µM.
For `CP(C)(=O)c1ccc(N2CC[C@](O)(C(=O)NCc3cc(F)cc(Cl)c3)C2=O)cc1` [Compound 9, (S)-N-(3-chloro-5-fluorobenzyl)-1-(4-(dimethylphosphoryl)phenyl)-3-hydroxy-2-oxopyrrolidine-3-carboxamide] the value was under 1 µM.
Consider `CP(C)(=O)c1ccc(N2CC[C@@](O)(C(=O)NCc3cc(F)cc(Cl)c3)C2=O)cc1` [Compound 9a], for which the IC50 is under 1 µM.
In the case of `O=C(NCc1cc(F)cc(F)c1)[C@@]1(O)CCN(c2ccc(P(=O)(C3CC3)C3CC3)cc2)C1=O` [Compound 10, (S)-1-(4-(dicyclopropylphosphoryl)phenyl)-N-(3,5-difluorobenzyl)-3-hydroxy-2-oxopyrrolidine-3-carboxamide], the IC50 was under 1 µM.
As to `O=C(NCc1cc(F)cc(F)c1)[C@]1(O)CCN(c2ccc(P(=O)(C3CC3)C3CC3)cc2)C1=O` [Compound 10a], the IC50 is 1 to 10 µM.
The result for `C[Si](C)(C)c1ccc(N2CC[C@](O)(C(=O)NCc3cc(F)cc(F)c3)C2=O)cc1` [Compound 11, (S)-N-(3,5-difluorobenzyl)-3-hydroxy-2-oxo-1-(4-(trimethylsilyl)phenyl)pyrrolidine-3-carbo xamide] reads under 1 µM; that for `O=C(NCc1cc(F)cc(F)c1)[C@@]1(O)CCN(c2ccc3c(c2)C2(CC2)CN3)C1=O` [Compound 12, (S)-N-(3,5-difluorobenzyl)-3-hydroxy-2-oxo-1-(spiro[cyclopropane-1,3′-indoline]-5′-yl)pyrr olidine-3-carboxamide], under 1 µM.
As to `O=C1Nc2ccc(N3CC[C@](O)(C(=O)NCc4cc(F)cc(Cl)c4)C3=O)cc2C12CC2` [Compound 13, (S)-N-(3-chloro-5-fluorobenzyl)-3-hydroxy-2-oxo-1-(2′-oxospiro[cyclopropane-1,3′-indoline]-5′-yl)pyrrolidine-3-carboxamide], the IC50 was under 1 µM.
On to `O=C1Nc2ccc(N3CC[C@@](O)(C(=O)NCc4cc(F)cc(Cl)c4)C3=O)cc2C12CC2` [Compound 13a], for which the IC50 is 1 to 10 µM.
As for `O=C1Nc2ccc(N3CC[C@](O)(C(=O)NCc4cc(F)cc(Cl)c4)C3=O)cc2C12CCC2` [Compound 14, (S)-N-(3-chloro-5-fluorobenzyl)-3-hydroxy-2-oxo-1-(2′-oxospiro[cyclobutane-1,3′-indoline]-5′-yl)pyrrolidine-3-carboxamide], the half-inhibitory concentration (IC50) is under 1 µM.
As for `O=C1Nc2ccc(N3CC[C@](O)(C(=O)NCc4cc(F)cc(F)c4)C3=O)cc2C12CCCC2` [Compound 15, (S)-N-(3,5-difluorobenzyl)-3-hydroxy-2-oxo-1-(2′-oxospiro[cyclopentane-1,3′-indoline]-5′-yl)pyrrolidine-3-carboxamide], the IC50 is under 1 µM.
The result for `O=C1Nc2ccc(N3CC[C@](O)(C(=O)NCc4cc(F)cc(F)c4)C3=O)cc2C12CC2` [Compound 16, (S)-N-(3,5-difluorobenzyl)-3-hydroxy-2-oxo-1-(2′-oxospiro[cyclopropane-1,3′-indoline]-5′-yl)pyrrolidine-3-carboxamide] reads under 1 µM; that for `O=C1Nc2ncc(N3CC[C@](O)(C(=O)NCc4cc(F)cc(Cl)c4)C3=O)cc2C12CC2` [Compound 17, (S)-N-(3-chloro-5-fluorobenzyl)-3-hydroxy-2-oxo-1-(2′-oxo-1′,2′-dihydrospiro[cyclopropane-1,3′-pyrrolo[2,3-b]pyridine]-5′-yl)pyrrolidine-3-carboxamide], under 1 µM; that for `O=C(NCc1cc(F)cc(F)c1)[C@@]1(O)CCN(c2ccc3c(c2)C2(CCC2)S(=O)(=O)N3)C1=O` [Compound 18, (S)-N-(3,5-difluorobenzyl)-1-(2,2-dioxido-1H-spiro[benzo[c]isothiazole-3,1′-cyclobutan]-5-y 1)-3-hydroxy-2-oxopyrrolidine-3-carboxamide], under 1 µM.
With `O=C(NCc1cc(F)cc(Cl)c1)[C@@]1(O)CCN(c2ccc3c(c2)C2(CCC2)S(=O)(=O)N3)C1=O` [Compound 19, (S)-N-(3-chloro-5-fluorobenzyl)-1-(2,2-dioxido-1H-spiro[benzo[c]isothiazole-3,1′-cyclobutan]-5-yl)-3-hydroxy-2-oxopyrrolidine-3-carboxamide], the IC50 is under 1 µM.
`O=C(NCc1cc(F)cc(Cl)c1)[C@@]1(O)CCN(c2ccc3c(c2)C2(CC2)S(=O)(=O)N3)C1=O` [Compound 20, (S)-N-(3-chloro-5-fluorobenzyl)-1-(2,2-dioxido-1H-spiro[benzo[c]isothiazole-3,1′-cyclopropan]-5-yl)-3-hydroxy-2-oxopyrrolidine-3-carboxamide]: the IC50 is under 1 µM.
For the compound `NC(=O)c1cc2cc(N3CCC(O)(C(=O)NCc4cc(F)cc(F)c4)C3=O)sc2[nH]1` (stereo not drawn) [Compound 23, 2-(3-(3,5-difluorobenzylcarbamoyl)-3-hydroxy-2-oxopyrrolidin-1-yl)-6H-thieno[2,3-b]pyrro 1e-5-carboxamide], the IC50 is under 1 µM.
